*1 amine or outer side, *2 acyl side, *3 side chain or, on linkers, in order; H or OH if unused. Where a SMILES comes first, the peptide text is derived from it. Bridges are numbered along the chain shown (N, C = ends). [ ]: non-standard residue; d: D form. X34 = O=C(C[C@@H](Cc1ccccc1)C(=O)[*:2])C12CC(CN[*:1])(C1)C2; NMeNva(5-imidazol-1-yl) = CN[C@@H](CCCn1ccnc1)C(=O)O; Phe(4-guanidino) = N=C(N)Nc1ccc(C[C@H](N)C(=O)O)cc1; X65 = O=C([C@H](CCCn1ccnc1[N+](=O)[O-])N[*:1])[*:2]; X22 = CNC(=N)N(C)CCC[C@@H](C(=O)[*:2])N(C)[*:1]; Ala(pyrimidin-5-yl) = N[C@@H](Cc1cncnc1)C(=O)O; Ala(2-pyrazinyl) = N[C@@H](Cc1cnccn1)C(=O)O; Ala(thiazol-5-yl) = N[C@@H](Cc1cncs1)C(=O)O; Trp(1-Me) = Cn1cc(C[C@H](N)C(=O)O)c2ccccc21; X51 = COc1cc(C[C@H](N[*:1])C(=O)[*:2])ncn1; X25 = O=C([C@H](Cc1ccc(F)nc1)N[*:1])[*:2]; X24 = O=C([C@H](Cc1ccncc1Cl)N[*:1])[*:2]; X11 = CC(C)(F)CC[C@H](N[*:1])C(=O)[*:2]; X15 = O=C([C@H](Cc1cnccc1F)N[*:1])[*:2]; NMeAha = CN[C@@H](CCN=[N+]=[N-])C(=O)O; Phe(2-F) = N[C@@H](Cc1ccccc1F)C(=O)O; NMe3Pal = CN[C@@H](Cc1cccnc1)C(=O)O; X1 = O=C(C12CC(CN[*:1])(C1)C2)[*:2]; Aha = [N-]=[N+]=NCC[C@H](N)C(=O)O; Ala(cPr) = N[C@@H](CC1CC1)C(=O)O; NMeF = CN[C@@H](Cc1ccccc1)C(=O)O; PhLac = O=C(O)[C@@H](O)Cc1ccccc1; X9 = CCCC[C@H](O[*:1])C(=O)[*:2]; 3Pal = N[C@@H](Cc1cccnc1)C(=O)O; d3Pal = N[C@H](Cc1cccnc1)C(=O)O; AllylGly = C=CC[C@H](N)C(=O)O; Ahp(2) = CCCCC[C@H](N)C(=O)O; Cba = N[C@@H](CC1CCC1)C(=O)O; NMeNle = CCCC[C@H](NC)C(=O)O; hLeu = CC(C)CC[C@H](N)C(=O)O; NMeAbu = CC[C@H](NC)C(=O)O; αMeC = C[C@](N)(CS)C(=O)O; NMeA = CN[C@@H](C)C(=O)O; Nle = CCCC[C@H](N)C(=O)O
What follows are molecules tested against KRAS-G12D protein (Homo sapiens, UniProt P01116, G12D) (assay: SOS-mediated nucleotide exchange assay (BODIPY-GDP / Tb-streptavidin TR-FRET)).
Type: biochemical

KRAS-G12D protein, sequence (P01116 1-188 isoform P01116-2 G12D): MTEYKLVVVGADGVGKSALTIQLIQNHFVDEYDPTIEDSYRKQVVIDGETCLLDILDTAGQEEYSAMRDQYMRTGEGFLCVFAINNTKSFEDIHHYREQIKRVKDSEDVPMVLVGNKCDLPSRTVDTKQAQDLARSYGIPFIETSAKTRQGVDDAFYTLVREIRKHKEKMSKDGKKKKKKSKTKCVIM

| SMILES | EC50 [nM] |
| --- | --- |
| CCCC[C@@H]1NC(=O)[C@H](Cc2cccnc2)NC(=O)[C@H](CCN=[N+]=[N-])N(C)C(=O)[C@H](Cc2ccccc2)OC(=O)C23CC(CNC(=O)[C@H](Cc4cccnc4)N(C)C(=O)[C@H](CCCC)NC(=O)[C@H](Cc4ccccc4F)NC1=O)(C2)C3 [compound 249, cyclo(FLac-NMeDabN3-3Pal-Nle-Phe2F-Nle-NMe3Pal-amBCP)] (cyclo([3Pal][Nle][Phe(2-F)][Nle][NMe3Pal][X1][PhLac][NMeAha])) | 87.6 |
| CCCCC[C@@H]1NC(=O)[C@H](Cc2ccc(OC)cc2)NC(=O)[C@H](CC2CCC2)NC(=O)[C@H](Cc2cccnc2)NC(=O)[C@H](C)N(C)C(=O)[C@H](Cc2ccccc2)NC(=O)CSC[C@@](C)(C(N)=O)NC(=O)[C@H](Cc2ccccc2)N(C)C1=O [compound 158, cyclo(F-NMeA-3Pal-cBuA-TyrOMe-Ahp-NMeF-aMeCl-ClAc)] ({CH2CO}-F[NMeA][3Pal][Cba]Y(Me)[Ahp(2)][NMeF][αMeC]-NH2; thioether N-8) | 146 |
| CCCC[C@@H]1NC(=O)[C@H](Cc2ccc(F)nc2)NC(=O)[C@H](C)N(C)C(=O)[C@H](Cc2ccccc2)OC(=O)C23CC(CNC(=O)[C@H](Cc4ccccc4)N(C)C(=O)[C@H](CCCC)NC(=O)[C@H](Cc4ccccc4F)NC1=O)(C2)C3 [compound 231, cyclo(FLac-NMeA-4F3Pal-Nle-Phe2F-Nle-NMeF-amBCP)] (cyclo([NMeA][X25][Nle][Phe(2-F)][Nle][NMeF][X1][PhLac])) | 72.4 |
| CCCC[C@@H]1NC(=O)[C@H](Cc2cccnc2)NC(=O)[C@H](CCCn2ccnc2)N(C)C(=O)[C@H](Cc2ccccc2)NC(=O)C23CC(CNC(=O)[C@H](Cc4cccnc4)N(C)C(=O)[C@H](CCCC)NC(=O)[C@H](Cc4ccccc4F)NC1=O)(C2)C3 [compound 265, cyclo(F-NMeNvalmid~3Pal-Nle-Phe2F-Nlc-NMe3Pal-amBCP)] (cyclo(F[NMeNva(5-imidazol-1-yl)][3Pal][Nle][Phe(2-F)][Nle][NMe3Pal][X1])) | 90.9 |
| CCCC[C@@H]1NC(=O)[C@H](Cc2ccc(O)cc2)NC(=O)[C@H](CC(C)C)NC(=O)[C@H](Cc2ccc(NC(=N)N)cc2)NC(=O)[C@H](CCCNC(=N)N)NC(=O)[C@H](Cc2ccccc2)NC(=O)CSC[C@@H](C(N)=O)NC(=O)[C@H](Cc2ccccc2)N(C)C1=O [compound 45, cyclo(F-R-Phe4Gn-L-Y-Nle-NMeF-Cl-ClAc)] ({CH2CO}-FR[Phe(4-guanidino)]LY[Nle][NMeF]C-NH2; thioether N-8) | 12.6 |
| CCCC[C@@H]1NC(=O)[C@H](Cc2cccnc2)NC(=O)[C@H](CCCN(C)C(=N)NC)N(C)C(=O)[C@H](Cc2ccccc2)OC(=O)CSC[C@@](C)(C(N)=O)NC(=O)[C@H](Cc2cccnc2)N(C)C(=O)[C@H](CCCC)NC(=O)[C@H](Cc2ccccc2F)NC1=O [compound 396, cyclo(FLac-NMeArg1MeMe-3Pal-Nle-Phe2F-Nle-NMe3Pal-aMeCl-ClAc)] ({CH2CO}-[PhLac][X22][3Pal][Nle][Phe(2-F)][Nle][NMe3Pal][αMeC]-NH2; thioether N-8) | 1.8 |
| CCCC[C@@H]1NC(=O)[C@H](Cc2ccccc2F)NC(=O)[C@H](CCN=[N+]=[N-])NC(=O)[C@H](Cc2cccnc2)NC(=O)[C@H](CCCC)N(C)C(=O)[C@H](Cc2ccccc2)OC(=O)C23CC(CNC(=O)[C@H](Cc4cccnc4)N(C)C1=O)(C2)C3 [compound 243, cyclo(FLac-NMeNle-3Pal-DabN3-Phe2F-Nle-NMe3Pal-amBCP)] (cyclo([3Pal][Aha][Phe(2-F)][Nle][NMe3Pal][X1][PhLac][NMeNle])) | 3060 |
| CCCC[C@@H]1NC(=O)[C@H](Cc2ccccc2F)NC(=O)C(CC2CC(F)(F)C2)NC(=O)[C@H](Cc2cncnc2)NC(=O)[C@H](C)N(C)C(=O)[C@H](Cc2ccccc2)OC(=O)C23CC(CNC(=O)[C@H](Cc4cccnc4)N(C)C1=O)(C2)C3 (single isomer, unassigned) [compound 123, cyclo(FLac-NMeA-PyrimAla-rF2Cba-Phe2F-Nle-NMe3Pal-amBCP)] | 8190 |
| CCCC[C@@H]1NC(=O)[C@H](Cc2cnccn2)NC(=O)[C@H](C)N(C)C(=O)[C@H](Cc2ccccc2)OC(=O)C23CC(CNC(=O)[C@H](Cc4ccccc4)N(C)C(=O)[C@H](CCCC)NC(=O)[C@H](Cc4ccccc4F)NC1=O)(C2)C3 [compound 322, cyclo(FLac-NMeA-AlaPyrz-Nle-Phe2F-Nle-NMeF-amBCP)] (cyclo([NMeA][Ala(2-pyrazinyl)][Nle][Phe(2-F)][Nle][NMeF][X1][PhLac])) | 2310 |
| C[C@H]1C(=O)N[C@@H](Cc2cncnc2)C(=O)N[C@@H](CC2CC2)C(=O)N[C@@H](Cc2ccncc2Cl)C(=O)N[C@@H](CCC(C)(C)F)C(=O)N(C)[C@@H](Cc2ccccc2)C(=O)NCC23CC(C2)(C3)C(=O)O[C@@H](Cc2ccccc2)C(=O)N1C [compound 299, cyclo(FLac-NMeA-PyrimAla-cPrA-4Pal2Cl-hL3F-NMeF-amBCP)] (cyclo([Ala(cPr)][X24][X11][NMeF][X1][PhLac][NMeA][Ala(pyrimidin-5-yl)])) | 6.3 |
| CCCC[C@@H]1NC(=O)[C@@H]2C/C=C\C[C@@H](C(N)=O)NC(=O)[C@H](CSCC(=O)N[C@@H](Cc3ccccc3)C(=O)N[C@@H](CCCNC(=N)N)C(=O)N[C@@H](Cc3cccnc3)C(=O)N[C@@H](CC3CCC3)C(=O)N2)NC(=O)[C@H](Cc2cccnc2)N(C)C1=O [SEQ ID NO: 186, cyclo(C1Ac-F-R-3Pal-cBuA-Ape-Nle-NMe3Pal-C)] ({CH2CO}-FR[3Pal][Cba][AllylGly][Nle][NMe3Pal]C[AllylGly]-NH2; staple (Z) 5-9; thioether N-8) | 7270 |
| CCCC[C@@H]1NC(=O)[C@H](Cc2cc(OC)ncn2)NC(=O)[C@H](C)N(C)C(=O)[C@H](Cc2ccccc2)OC(=O)C23CC(CNC(=O)[C@H](Cc4ccccc4)N(C)C(=O)[C@H](CCCC)NC(=O)[C@H](Cc4ccccc4F)NC1=O)(C2)C3 [compound 306, cyclo(FLac-NMeA-Ala6Pyrim4OMe-Nle-Phe2F-Nle-NMeF-amBCP)] (cyclo([NMeA][X51][Nle][Phe(2-F)][Nle][NMeF][X1][PhLac])) | 7000 |
| CCCCC[C@@H]1NC(=O)[C@H](Cc2ccc(OC)cc2)NC(=O)[C@H](CC2CCC2)NC(=O)[C@H](Cc2cncs2)NC(=O)[C@H](CCCNC(=N)N)NC(=O)[C@H](Cc2ccccc2)NC(=O)CSC[C@@](C)(C(N)=O)NC(=O)[C@H](Cc2ccccc2)N(C)C1=O [compound 363, cyclo(F-R-TZAla-cBuA-TyrOMe-Ahp-NMeF-aMeCl-ClAc)] ({CH2CO}-FR[Ala(thiazol-5-yl)][Cba]Y(Me)[Ahp(2)][NMeF][αMeC]-NH2; thioether N-8) | 13.2 |
| CCCC[C@@H]1NC(=O)[C@H](Cc2ccccc2F)NC(=O)[C@H](CCCC)OC(=O)[C@H](Cc2cccnc2)NC(=O)[C@H](CCN=[N+]=[N-])N(C)C(=O)[C@H](Cc2ccccc2)NC(=O)C23CC(CNC(=O)[C@H](Cc4cccnc4)N(C)C1=O)(C2)C3 [compound 250, cyclo(F-NMeDabN3-3Pal-NleLac-Phe2F-Nle-NMe3Pal-amBCP)] (cyclo(F[NMeAha][3Pal][X9][Phe(2-F)][Nle][NMe3Pal][X1])) | 3880 |
| CCCC[C@@H]1NC(=O)[C@H](Cc2ccccc2F)NC(=O)[C@H](CC2CCC2)NC(=O)[C@@H](Cc2cccnc2)NC(=O)[C@H](CCCn2ccnc2[N+](=O)[O-])NC(=O)[C@H](Cc2ccccc2)NC(=O)C23CC(CNC(=O)[C@H](Cc4cccnc4)N(C)C1=O)(C2)C3 [compound 107, cyclo(F-NO2IMNva-d3Pal-cBuA-Phe2F-Nle-NMe3Pal-amBCP)] (cyclo(F[X65][d3Pal][Cba][Phe(2-F)][Nle][NMe3Pal][X1])) | 242 |
| C[C@H]1C(=O)N[C@@H](Cc2cncnc2)C(=O)N[C@@H](CC2CC2)C(=O)N[C@@H](Cc2ccccc2F)C(=O)N[C@@H](CCC(C)(C)F)C(=O)N(C)[C@@H](Cc2ccccc2)C(=O)NCC23CC(C2)(C3)C(=O)C[C@@H](Cc2ccccc2)C(=O)N1C [compound 273, cyclo(CPhe-NMeA-PyrimAla-cPrA-Phe2F-hL3F-NMeF-amBCP)] (cyclo([Ala(cPr)][Phe(2-F)][X11][NMeF][X34][NMeA][Ala(pyrimidin-5-yl)])) | 1 |
| CC(C)CC[C@@H]1NC(=O)[C@H](Cc2ccccc2F)NC(=O)[C@H](CC2CCC2)NC(=O)[C@H](Cc2cncnc2)NC(=O)[C@H](C)N(C)C(=O)[C@H](Cc2ccccc2)OC(=O)C23CC(CNC(=O)[C@H](Cc4ccccc4)N(C)C1=O)(C2)C3 [compound 134, cyclo(FLac-NMeA-PyrimAla-cBuA-Phe2F-hL-NMeF-amBCP)] (cyclo([Cba][Phe(2-F)][hLeu][NMeF][X1][PhLac][NMeA][Ala(pyrimidin-5-yl)])) | 6.47 |
| CCCC[C@@H]1NC(=O)[C@H](Cc2cccnc2)NC(=O)[C@H](CC)N(C)C(=O)[C@H](Cc2ccccc2)OC(=O)C23CC(CNC(=O)[C@H](Cc4cccnc4)N(C)C(=O)[C@H](CCCC)NC(=O)[C@H](Cc4ccccc4F)NC1=O)(C2)C3 [compound 404, cyclo(FLac-NMeAbu-3Pal-Nle-Phe2F-Nle-NMe3Pal-amBCP)] (cyclo([3Pal][Nle][Phe(2-F)][Nle][NMe3Pal][X1][PhLac][NMeAbu])) | 29 |
| CCCCC[C@@H]1NC(=O)[C@H](Cc2ccc(O)cc2)NC(=O)[C@H](CC(C)C)NC(=O)[C@H](Cc2ccc(O)cc2)NC(=O)[C@H](CCCNC(=N)N)NC(=O)[C@H](Cc2cn(C)c3ccccc23)NC(=O)CSC[C@@H](C(N)=O)NC(=O)[C@H](Cc2ccccc2)N(C)C1=O [compound 6, cyclo(TrplMe-R-Y-L-Y-Ahp-NMeF-Cl-ClAc)] ({CH2CO}-[Trp(1-Me)]RYLY[Ahp(2)][NMeF]C-NH2; thioether N-8) | 288 |
| CCCC[C@@H]1NC(=O)[C@H](Cc2cccnc2)NC(=O)[C@H](C)N(C)C(=O)[C@H](Cc2ccc(O)cc2)NC(=O)C23CC(CNC(=O)[C@H](Cc4cccnc4)N(C)C(=O)[C@H](CCCC)NC(=O)[C@H](Cc4ccccc4F)NC1=O)(C2)C3 [compound 168, cyclo(Y-NMeA-3Pal-Nle-Phe2F-Nle-NMe3Pal-amBCP)] (cyclo(Y[NMeA][3Pal][Nle][Phe(2-F)][Nle][NMe3Pal][X1])) | 440 |
| CC(C)CC[C@@H]1NC(=O)[C@H](Cc2cnccc2F)NC(=O)[C@H](CC2CC2)NC(=O)[C@H](Cc2cncnc2)NC(=O)[C@H](C)N(C)C(=O)[C@H](Cc2ccccc2)OC(=O)C23CC(CNC(=O)[C@H](Cc4ccccc4)N(C)C1=O)(C2)C3 [compound 213, cyclo(FLac-NMcA-PyrimAla-cPrA-3Pal6F-hL-NMeF-amBCP)] (cyclo([Ala(cPr)][X15][hLeu][NMeF][X1][PhLac][NMeA][Ala(pyrimidin-5-yl)])) | 3.72 |

Source: patent publication US20260001914A1, “MACROCYCLIC PEPTIDES TARGETING KRAS” (Merck Sharp & Dohme LLC, priority 2022, published 2026)
